The text below walks through data of patent publication US9212130B2, “Heterocyclic derivative and pharmaceutical composition comprising the same” (SHIONOGI & CO., LTD., priority 2010, dated 2015).

Sequence of human P2X3 receptor (P56373 whole entry): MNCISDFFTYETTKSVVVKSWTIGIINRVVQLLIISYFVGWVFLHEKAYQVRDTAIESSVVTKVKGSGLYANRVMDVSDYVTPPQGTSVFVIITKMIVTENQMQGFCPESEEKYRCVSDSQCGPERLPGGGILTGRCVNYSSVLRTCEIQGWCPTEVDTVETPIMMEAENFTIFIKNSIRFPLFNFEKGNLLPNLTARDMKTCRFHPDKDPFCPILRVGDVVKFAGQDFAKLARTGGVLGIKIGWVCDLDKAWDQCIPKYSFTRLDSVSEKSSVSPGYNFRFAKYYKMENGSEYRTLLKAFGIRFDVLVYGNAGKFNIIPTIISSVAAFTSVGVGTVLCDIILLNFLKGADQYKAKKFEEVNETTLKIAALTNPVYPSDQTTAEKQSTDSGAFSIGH

The target of the assay is human P2X3 receptor (Homo sapiens (Human), UniProt P56373). Nature of the assay: Evaluation of human P2X3 receptor inhibitory activity (ATP-induced Fluo-3 fluorescence, FDSS 3000). The assay is classed as cell-based. The settings on record: C6BU-1 cell transfected with human P2X3 receptor gene. As to the method:
The plate was placed in High-Throughput Screening System FDSS 3000 (Hamamatsu Photonics K.K.). […] Five minutes after, 50 nM ATP solution (50 μL) prepared by dilution with the dilution buffer was dispensed through the built-in automatic dispenser, and the measurement of fluorescence intensity was continued for 3 min. For each well, the specific maximum fluorescence intensity was calculated as the ratio of the maximum fluorescence intensity after addition of the ATP solution to the fluorescence intensity at the starting of the measurement. […] FDSS software (Hamamatsu Photonics K.K.) was used for calculation of the specific maximum fluorescence intensity. IC50 was calculated using Microsoft Excel (Microsoft. Corporation) and XLfit (idbs Ltd.)
The aforementioned in mM, μM and nM are each means mmol/L, μmol/L and nmol/L, respectively.
In tables, μM means μmol/L.
Molecule `CC(C)Oc1ccc(Nc2cc(=O)n(Cc3ccccc3)cc2C(O)c2ccc(Cl)cc2)cc1Cl` (stereo not drawn) [I-068, 4-(3-chloro-4-isopropoxyphenylamino)-1-benzyl-5-(4-chloro-α-hydroxybenzyl)pyridine-2(1H)-one] came in with a half-maximal inhibitory concentration (IC50) of 105 nM.

In turn, `CC(C)Oc1ccc(Nc2ncc(NC(=O)CC3CCOCC3)c(=O)n2Cc2ccc(Cl)cc2)cc1F` [I-233] gave an IC50 of 49 nM.

With `CC(C)Oc1ccc(Nc2nc(=O)c(N3CCOCC3)cn2Cc2ccc(Cl)cc2)cc1F` [I-209], the half-inhibitory concentration (IC50) stood at 397 nM.

Consider `CC(C)Oc1ccc(Nc2ncc(C(=O)NCCO)c(=O)n2Cc2ccc(Cl)cc2)cc1F` [I-152], for which the midpoint of inhibition, the IC50, lay at 96 nM.

Molecule `Cc1nc2ccc(Nc3ncc(NC(=O)OCc4ccccc4)c(=O)n3Cc3ccc(Cl)cc3)cc2s1` [I-319] yielded an IC50 of 105 nM.

Take `COC(=O)CCCn1c(=O)cc(Nc2ccc3nc(C)sc3c2)n(Cc2ccc(Cl)cc2)c1=O` [I-352]: half-maximal inhibition (IC50) was put at 24 nM.

Turning to `CC(C)Oc1ccc(Nc2ncc(C#N)c(=O)n2Cc2ccc(Cl)cc2)cc1F` [I-259], the IC50 amounted to 436 nM.

`CNc1cnc(Nc2ccc(OC(C)C)c(F)c2)n(Cc2ccc(Cl)cc2)c1=O` [I-222] had a concentration for half-maximal inhibition (IC50) of 560 nM.

`C=Cc1c(C)nc(Nc2ccc3nc(C)sc3c2)n(Cc2ccc(Cl)cc2)c1=O` [I-350] showed an IC50 of 385 nM. The IC50 values of the last two molecules are within 1.5-fold of each other.

`Cc1nc2ccc(Nc3nc(=O)c(C(=O)NCCC#N)cn3Cc3ccc(Cl)cc3)cc2s1` [I-301] came in with a half-inhibitory concentration (IC50) of 123 nM.

In turn, `COc1cc(C(=O)Nc2cnc(Nc3ccc(OC(C)C)c(F)c3)n(Cc3ccc(Cl)cc3)c2=O)ccn1` [I-273] showed an IC50 of 95 nM.

Turning to `CCOC(=O)c1c(O)[nH]/c(=N\c2ccc(OC(C)C)cc2)n(Cc2ccc(Cl)cc2)c1=O` [I-334], the half-maximal inhibitory concentration (IC50) is 188 nM.

Turning to `CC(C)Oc1ccc(Nc2cc(=O)n(Cc3ccccc3)cc2C(=O)c2ccc(Cl)cc2)cc1Cl` [I-065, 4-(3-chloro-4-isopropoxyphenylamino)-1-benzyl-5-(4-chlorobenzoyl)pyridine-2(1H)-one], it took 128 nM to reach half-maximal inhibition (IC50).

The molecule `COC(=O)CCCn1c(=O)cc(Nc2ccc(OC(C)C)c(Cl)c2)n(Cc2ccc(Cl)cc2)c1=O` [I-103] gave a 50% inhibitory concentration (IC50) of 14 nM.

Molecule `COC(=O)CCNC(=O)c1c(O)[nH]/c(=N\c2ccc(OC(C)C)cc2)n(Cc2ccc(Cl)cc2)c1=O` [I-333, 1-(4-chlorobenzyl)-3-(2-methoxycarbonylethyl)carbamoyl-4-hydroxy-6-(4-isopropoxyphenylimino)-2,3-dihydro-pyrimidine-4-one] had an IC50 of 115 nM.

On to `COc1ccc(C(=O)Nc2cnc(Nc3ccc(OC(C)C)c(F)c3)n(Cc3ccc(Cl)cc3)c2=O)cn1` [I-274], for which the 50% inhibitory concentration (IC50) worked out at 66 nM.

Molecule `O=C(Nc1cnc(Nc2ccc(Oc3cnc(Cl)c(F)c3)cc2)n(Cc2ccc(Cl)cc2)c1=O)C1CCOCC1` [I-311] displayed an IC50 of 4 nM.

`CC(C)Oc1ccc(Nc2ncc(NC(=O)c3ccc(=O)[nH]c3)c(=O)n2Cc2ccc(Cl)cc2)cc1F` [I-276] registered an IC50 of 32 nM.

On to `CCOC(=O)c1cnc(Nc2ccc(OC(C)C)c(Cl)c2)n(Cc2ccc(Cl)cc2)c1=O` [I-126], for which the half-inhibitory concentration (IC50) was found to be 50 nM.

`CC(C)Oc1ccc(Nc2ncc(/C=C/C(=O)O)c(=O)n2Cc2ccc(Cl)cc2)cc1Cl` [I-139, 2-(3-chloro-4-isopropoxyphenylamino)-3-(4-chlorobenzyl)-5-(2-hydroxycarbonylethenyl) pyrimidine-4(3H)-one]: the IC50 came to 331 nM.

In turn, `CCNC(=O)Nc1cnc(Nc2ccc(OC(C)C)c(F)c2)n(Cc2ccc(Cl)cc2)c1=O` [I-250] came in with a half-maximal inhibitory concentration (IC50) of 7 nM.

On to `CCNc1ccc(Nc2ccc(OC(C)C)cc2)c(Cc2ccc(Cl)cc2)c1` [I-071, 1-(4-chlorobenzyl)-3-ethylamino-6-(4-isopropoxyphenylamino)benzene], for which the 50% inhibitory concentration (IC50) was 502 nM.

The molecule `Cc1nc2ccc(Nc3nc(=O)c(C(=O)NN(C)C)cn3Cc3ccc(Cl)cc3)cc2s1` [I-310] yielded an IC50 of 132 nM.

As to `CC(=O)OC(C)(C)C(=O)Nc1cnc(Nc2ccc3nc(C)sc3c2)n(Cc2ccc(Cl)cc2)c1=O` [I-358], the IC50 is 16 nM.

As to `CC(=O)N1CCC(C(=O)Nc2cnc(Nc3ccc(OC(C)C)c(F)c3)n(Cc3ccc(Cl)cc3)c2=O)CC1` [I-270], it took 10 nM to reach half-maximal inhibition (IC50).

As for `CC(C)Oc1ccc(Nc2ncc(NC(=O)C3COC(C)(C)OC3)c(=O)n2Cc2ccc(Cl)cc2)cc1F` [I-287], the half-maximal inhibitory concentration (IC50) is 23 nM.

The molecule `CC(=O)Nc1c(O)[nH]/c(=N\c2ccc(OC(C)C)cc2)n(Cc2ccc(Cl)cc2)c1=O` [I-339, 1-(4-chlorobenzyl)-3-acetylamino-4-hydroxy-6-(4-isopropoxyphenylimino)-2,3-dihydro-pryimidine-4-one] yielded an IC50 of 518 nM. This IC50 lies about 23-fold higher than the previous one.

For the molecule `CC(C)Oc1ccc(Nc2ncc(C(=O)O)c(=O)n2Cc2ccc(Cl)cc2)cc1Cl` [I-129], the IC50 was found to be 490 nM.

Take `CC(C)Oc1ccc(Nc2ncc(C(=O)NN)c(=O)n2Cc2ccc(Cl)cc2)cc1F` [I-272]: the half-maximal inhibitory concentration (IC50) is 104 nM.

For `CCOC(=O)c1cn(Cc2ccccc2)c(=O)cc1Nc1ccc(OC(C)C)c(Nc2ccc(OC(C)C)c(Cl)c2)c1` [I-061], half-maximal inhibition (IC50) required 748 nM.

`CC(C)Oc1ccc(Nc2ncc(NC(=O)C3CCOCC3)c(=O)n2Cc2ccc(Cl)cc2)cc1Cl` [I-236] had an IC50 of 6 nM. This IC50 is about 120-fold lower than that of the molecule before.

The molecule `CC(C)Oc1ccc(Nc2nc(OCCO)c3ccccc3c2C(=O)c2ccc(Cl)cc2)cc1F` [I-110, 4-(4-chlorobenzoyl)-3-(3-fluoro-4-isopropoxyphenylamino)-1-(2-hydroxyethoxy)isoquinoline] yielded a half-maximal inhibitory concentration (IC50) of 405 nM. Compared with the last molecule, the IC50 is about 68-fold higher.

`Cc1cc(=O)n(Cc2ccc(Cl)cc2)c(Nc2ccc3nc(C)sc3c2)n1` [I-343]: the midpoint of inhibition, the IC50, lay at 694 nM.

With `CC(C)Oc1ccc(Nc2nc(=O)c(/C=C/C(=O)O)cn2Cc2ccc(Cl)cc2)cc1Cl` [I-097], the IC50 stood at 307 nM.

Molecule `CC(C)Oc1ccc(Nc2ncc(NC(=O)C(C)(C)C#N)c(=O)n2Cc2ccc(Cl)cc2)cc1F` [I-290] gave an IC50 of 23 nM.

On to `COC(=O)[C@@H](C)Cn1c(=O)cc(Nc2ccc(OC(C)C)cn2)n(Cc2ccc(Cl)cc2)c1=O` [I-213], for which inhibition was half-maximal at 427 nM (IC50).

Molecule `CCOC(=O)c1c(C)nc(Nc2ccc3nc(C)sc3c2)n(Cc2ccc(Cl)cc2)c1=O` [I-345] came in with an IC50 of 273 nM. Compared with the last molecule, the IC50 is about 1.6-fold lower.

As to `CC(=O)OC(C)(C)C(=O)Nc1cnc(Nc2ccc(Oc3ccc(C)nc3)cc2)n(Cc2ccc(Cl)cc2)c1=O` [I-293], the IC50 came to 14 nM. Compared with the last molecule, the IC50 is about 20-fold lower.

As to `CC(C)Oc1ccc(Nc2ncc(NC(=O)CCC(=O)O)c(=O)n2Cc2ccc(Cl)cc2)cc1F` [I-231], the IC50 was determined as 226 nM.

Molecule `Cc1ccc(Oc2ccc(Nc3ncc(NC(=O)C(CO)CO)c(=O)n3Cc3ccc(Cl)cc3)cc2)cn1` [I-298] displayed a 50% inhibitory concentration (IC50) of 8 nM. Compared with the last molecule, the IC50 is about 28-fold lower.

For the molecule `CC(C)Oc1ccc(Nc2ncc(C(=O)N[C@@H](C)C(=O)O)c(=O)n2Cc2ccc(Cl)cc2)cc1F` [I-201], the half-maximal inhibitory concentration (IC50) was determined as 229 nM.

`COCCC(=O)Nc1cn(Cc2ccc(Cl)cc2)c(Nc2ccc(OC(C)C)c(F)c2)nc1=O` [I-240] registered an IC50 of 417 nM.

In turn, `CCOC(=O)/C=C/c1cn(Cc2ccc(Cl)cc2)c(Nc2ccc(OC(C)C)c(Cl)c2)nc1=O` [I-098] returned a concentration for half-maximal inhibition (IC50) of 233 nM.

`COC(=O)[C@@H](C)Cn1c(=O)cc(Nc2ccc(OC(C)C)c(Cl)c2)n(Cc2ccc(Cl)cc2)c1=O` [I-095] displayed an IC50 of 16 nM.

The molecule `CC(C)Oc1ccc(Nc2ncc(NC(=O)C3CCOCC3)c(=O)n2Cc2ccc(Cl)cc2)cc1` [I-235] had an IC50 of 11 nM.

Take `CC(C)Oc1ccc(Nc2cc(=O)n(CC(C)(C)C(=O)O)c(=O)n2Cc2ccc(Cl)cc2)cc1Cl` [I-012]: it took 6 nM to reach half-maximal inhibition (IC50).

Take `CC(C)Oc1ccc(Nc2ccc(Cc3nc(N(C)C)oc(=O)c3Cl)cc2)cc1F` [I-063]: the concentration for half-maximal inhibition (IC50) stood at 688 nM.

Regarding `CCC1(CC)C(=O)N/C(=N\c2ccc(OC(C)C)cc2)N(Cc2ccc(Cl)cc2)C1=O` [I-327], the 50% inhibitory concentration (IC50) was found to be 867 nM. The IC50 values of the last two molecules are within 1.5-fold of each other.

For the molecule `CC(C)NC(=O)c1c(O)[nH]/c(=N\c2ccc(OC(C)C)cc2)n(Cc2ccc(Cl)cc2)c1=O` [I-332], the IC50 stood at 504 nM.

On to `O=C(Nc1cnc(Nc2ccc(Oc3cc[nH]c(=O)c3)cc2)n(Cc2ccc(Cl)cc2)c1=O)C1CCOCC1` [I-244], for which inhibition was half-maximal at 2 nM (IC50).

As to `Cc1ccc(Oc2ccc(Nc3ncc(NC(=O)C(CO)CO)c(=O)n3Cc3ccc(Cl)cc3)cc2)cn1` [I-296], the concentration for half-maximal inhibition (IC50) worked out at 7 nM.

The molecule `CC(C)Oc1ccc(Nc2cc(=O)n(CC(=O)O)c(=O)n2Cc2ccc(Cl)cc2)cc1F` [I-105, 1-(4-chlorobenzyl)-6-(3-fluoro-4-isopropoxyphenylamino)-3-(hydroxycarbonylmethyl)pyrimidine-2,4(1H,3H)-dion] showed a half-maximal inhibitory concentration (IC50) of 412 nM.

As to `Cc1nc2ccc(Nc3ncc(NC(=O)C(CO)CO)c(=O)n3Cc3ccc(Cl)cc3)cc2s1` [I-361], 10 nM corresponded to half-maximal inhibition (IC50).

Regarding `CC(C)Oc1ccc(Nc2ncc(Cc3ccccc3)c(=O)n2Cc2ccc(Cl)cc2)cc1Cl` [I-022], the IC50 was 147 nM.

Consider `CC(=O)OC(C)(C)C(=O)Nc1cnc(Nc2ccc(OC(C)C)c(F)c2)n(Cc2ccc(Cl)cc2)c1=O` [I-267], for which the midpoint of inhibition, the IC50, lay at 25 nM.

Turning to `CC(C)(CN1C(=O)N(Cc2ccc(Cl)cc2)C(Nc2cccc(C(F)(F)F)c2)=CC1O)C(=O)O` (stereo not drawn) [I-113], the IC50 stood at 72 nM. Against the preceding molecule, the IC50 is about 2.9-fold higher.

Consider `Cc1cc(Nc2ncc(NC(=O)C3CCOCC3)c(=O)n2Cc2ccc(Cl)cc2)ccc1OC(C)C` [I-237], for which the half-maximal inhibitory concentration (IC50) is 13 nM.

On to `CC(C)Oc1ccc(Nc2ncc(NC(=O)c3ccn(C)c(=O)c3)c(=O)n2Cc2ccc(Cl)cc2)cc1F` [I-279], for which inhibition was half-maximal at 139 nM (IC50).

`CSc1ccc(Cn2c(Nc3ccc4nc(C)sc4c3)ncc(NC(=O)C3CCOCC3)c2=O)cc1` [I-312] returned an IC50 of 11 nM.

`CC(C)Oc1ccc(Nc2ncc(NC(=O)C3CCOCC3)c(=O)n2Cc2ccc(Cl)cc2)cc1F` [I-234, 2-(3-fluoro-4-isopropoxyphenylamino)-3-(4-chlorobenzyl)-5-(tetrahydro-2H-pyrane-4-ylcarbonylamino)pyrimidine-4(3H)-one] returned a concentration for half-maximal inhibition (IC50) of 4 nM. This IC50 lies about 2.8-fold lower than the previous one.

One may read the IC50 as the point on the concentration scale where inhibition reaches its midpoint.
